Results as given in patent publication US20250186486A1, “POTENTIATION OF DURABLE ANTITUMOR IMMUNITY BY MULTIFACTORIAL IMMUNE MODULATION” (BAYLOR COLLEGE OF MEDICINE, priority 2022, published 2025).

What was measured:
4T-1 TNBC cells = assay: Subcutaneous 4T-1 TNBC tumor model, intratumoral injection; tumor growth by caliper/IVIS, survival; type: in vivo, Balb/c mice; conditions: 4T-1 s.c.; for impact on tumor growth: injected intratumorally on day 12, caliper (FIGS. 7, 8)
From the text: Mice. 6-10 week old female Balb/c mice or C57BL/6 animals of both sexes were procured from Baylor College of Medicine or Jackson Laboratories (Bar Harbor, ME). Th-MYCN mice in the 129X1/SvJ background were a kind gift from Dr. William Weiss (UCSF, San Francisco, CA) and were bred in house. All mice were maintained in accordance with the specific IACUC requirements of Baylor College of Medicine and in accordance with animal protocol AN-8375.
Tumor Implantation and Measurements. 500,000 4T-1 TNBC cells (+/−luc2 transduction) were subcutaneously injected onto the hind quarters/back of each mouse and allowed time to reach palpation (approximately 50-100 mm^3) before treatment. For orthotopic 4T-1 experiments, 500,000 4T-1 cells were implanted in the mammary fat pad according to the method of Zhang et al.^34 Following establishment of tumors, experimental cohorts were assembled by means of stratified randomization. Attempts were made to minimize confounding variables such as order of cohort treatment, order of tumor measurement, and cage location by means of simple randomization. Tumors were treated with either the indicated antitumor regimen or vehicle control and measured by IVIS imaging (if applicable) or calculated by caliper measurement. 100,000 MOC-2 HNSCC cells were subcutaneously injected onto the hind quarters/back of each mouse and allowed to become palpable (approximately 50-100 mm^3) before treatment. Tumor size and progression were determined by caliper measurement. Single cell suspensions were generated from Th-MYCN tumors according to the method of Kroesen et al.^12 Suspensions were subcutaneously injected onto the hind quarters/back of each mouse and allowed time to reach palpation (approximately 50-100 mm^3) before treatment. Tumor size and progression were determined by caliper measurement. Tumor volumes were calculated by measuring in two dimensions according to the formula (longest length^2)×shortest length.
IVIS Imaging. Post tumor implantation, mice were injected with […] of 10 mg/ml D-Luciferin (Regis Technologies, Morton Grove, IL), incubated for 7 min and bio-luminescence was measured with the IVIS imaging system (Caliper Life Sciences, Waltham, MA) following a 60 second exposure. Imaging was performed at 2-4 day intervals.
Antitumor reagents. For optimization in the TNBC model, all reagents were dissolved in either DMSO or sterile water based on solubility requirements and included Copper(II) diethyldithiocarbamate at 85 μg/50 μl (VWR, Radnor, PA), 2-Cl-IB-MECA at 20 μg/50 μl (Millipore, Burlington, MA), DMXAA at […]/50 μl (R&D Systems, Minneapolis, MN), 5′ppp-dsRNA/Lyovec at 375 ng/50 μl (Invivogen, San Diego, CA), R848 at 15 μg/50 μl (Invivogen), galunisertib at […]/50 μl (Selleckchem, Houston, TX), epcadostat at […]/50 μl (Selleckchem), N^w-Hydroxy-nor-L-arginine at 6 μg/50 μl (Sigma-Aldrich, St. Louis, MO), L-NMMA at 100 ng/50 μl (Abcam, Boston, MA), clodronate at […]/50 μl (Abcam), and 4-1BB ligand at 1 μg/50 μl (NovusBio). Combinatorial treatments were reconstituted as a 10× stock, combined as necessary, and diluted to a 1× concentration with the appropriate diluent. Treatments were intratumorally injected with a 28 gauge needle as a 50 μl bolus. […]
Statistical Analysis. Significance of differences, unless stated otherwise, was determined by one-way analysis of variance (ANOVA) using Tukey's honestly significant difference (HSD) post hoc test. […]

4T-1 luc-2+ cells = assay: Orthotopic 4T-1 TNBC model (mammary fat pad), intratumoral treatment, IVIS; type: in vivo, Balb/c mice; conditions: 4T-1 luc-2+ in mammary fat pad, intratumoral treatment from day 7
Protocol: Lastly, the boosting regimen was combined together with regimen 16 and performed a dose response analysis at 1×, 0.5×, 0.125×, 0.0625×, and 0.03125× concentrations. […] Similar to the experiment outlined in FIGS. 1C-D, this experiment was performed with the 4T-1 luc2^neg parent cell line to validate that protective immune responses were not dependent upon the presence of xenogeneic luciferase. The treatment model was next validated in the orthotopic setting (Zhang et al., 2019). In this series of experiments, 500,000 4T-1 luc-2^+ cells were implanted under the fourth nipple of the mammary fat pad. […]
Tumor Implantation and Measurements. […] Tumors were treated with either the indicated antitumor regimen or vehicle control and measured by IVIS imaging (if applicable) or calculated by caliper measurement. […] Tumor size and progression were determined by caliper measurement. […] Tumor size and progression were determined by caliper measurement. Tumor volumes were calculated by measuring in two dimensions according to the formula (longest length^2)×shortest length.
IVIS Imaging. Post tumor implantation, mice were injected with […] of 10 mg/ml D-Luciferin (Regis Technologies, Morton Grove, IL), incubated for 7 min and bio-luminescence was measured with the IVIS imaging system (Caliper Life Sciences, Waltham, MA) following a 60 second exposure. […]

Molecule: 4-1BBL: 4-1BB ligand (NovusBio), 4-1BB agonist
- effect of presence of 4-1BBL on anti-tumor effects of the TLR, STING and RLR agents (4T-1 TNBC cells; FIG. 8): antagonized the anti-tumor effects

Molecule: CC(=O)O.CNC(=N)NCCC[C@H](N)C(=O)O [L-NMMA, L-NG-monomethyl arginine acetate]
- impact on tumor growth (4T-1 TNBC cells): no beneficial impact on tumor growth

Molecule: N=C(NO)NCC[C@H](N)C(=O)O [No-hydroxy-nor-L-arginine]
- impact on tumor growth (4T-1 TNBC cells): no beneficial impact on tumor growth

Molecule: O=P(O)(O)C(Cl)(Cl)P(=O)(O)O [clodronate]
- impact on tumor growth (4T-1 TNBC cells): no beneficial impact on tumor growth

Molecule: NS(=O)(=O)NCCNc1nonc1C(=NO)Nc1ccc(F)c(Br)c1 [epacadostat]
- impact on tumor growth (4T-1 TNBC cells): no beneficial impact on tumor growth

Molecule: Cc1cccc(-c2nn3c(c2-c2ccnc4ccc(C(N)=O)cc24)CCC3)n1 [galunersitib, galunisertib]
- tumor growth in the orthotopic setting (4T-1 luc-2+ cells): no impact on tumor growth
